Reference: patent US20190160035A1, “METHOD OF TREATMENT” (QBIOTICS LIMITED, priority 2016, published 2019)

Legend:
[1] = Example 5: adverse events (VCOG-CTCAE classification); format: in vivo, Canis lupus familiaris (dog)
Description: With the exception of swelling and pain, local tissue pathology as a result of treatment (i.e. tumor necrosis) was not considered an adverse event (AE). AEs reported such as transitory post treatment lethargy, listlessness and apathy are generally considered to be the result of the powerful local inflammatory response and systemic activation of the dog's immune response during the treatment response phase. In this study, 72 AEs were identified in 14 event types (see Table 28). The majority of identified AEs (59 out of 72; 82%) were represented by the ‘mild’ VCOG-CTCAE classification Grade 1 with no intervention required. With the exception of dogs C05-T-04 and C05-T-17 (described previously), a level of minimal medical intervention was required in only 3 cases. Dog C05-T-05 was medicated with metronidazole for transient diarrhea reported on Day 14 post-treatment; dog C05-T-07 was medicated with an antibiotic course (amoxicillin/clavulanic acid) for skin pustulation on the ventral abdomen (distant to drug injection site); and dog C05-T-09 was prescribed a prophylactic antibiotic course (cephalexin) on Day 21 on observation by the referral practice of ‘inflamed and angry’ lesion edges and having an impression smear of wound surface with ‘neutrophils and round cells (without granules)’. These findings for dog C05-T-09 of neutrophil presence is perhaps not unexpected due to the mechanism of action of the drug. The dog was reported having normal demeanour at this time. With the exception of the limb swelling in dog C05-T-17 (degranulation reaction), all reported AEs were transient in nature—resolved by 24-48 h post treatment.

[2] = system: MCT (cutaneous and subcutaneous); experiment: Example 5: Compound 1 injection with oral prednisolone and antihistamine co-therapy, RECIST v.1.1 tumor response; format: in vivo, Canis lupus familiaris (dog)
Description: This study investigates the efficacy and safety of Compound 1 injection for MCT treatment in the presence of corticosteroids administered under defined clinical situations.
Dogs were selected for the study if they met the criteria in Table 1 (Example 1) but where the dog has at least one MCT.
Wherever possible, the tumor and a 2 cm border surrounding the tumor was shaved prior to treatment. To deliver the drug, the needle of the dosing syringe was inserted into the tumor at the injection point and moved in a radial manner in 2- and 3-dimensions with drug delivered to the tumor mass. Study dogs were clinically examined at 2-4 and 24 hours, and 7 (+2), 14 (+2) and 28 (+2) days post-treatment (and unscheduled visits at attending veterinarian discretion).
Each supervising veterinarian was given latitude to provide and record prophylactic and supportive medications as deemed appropriate for managing potential paraneoplastic events and tumor site necrosis following Compound 1 treatment. However, prednisolone and antihistamines were used as co-therapy. Prednisolone therapy commenced on Day −1 and continued for a further 7 days. H1 and H2 antihistamine therapy (chlorpheniramine and famotidine respectively) commenced on the morning of drug treatment and continued for a further 6 days (see Table 23).
RECIST v.1.1 results are summarised in Table 28 which also includes a measure of neoadjuvant prednisolone action (potential tumor shrinkage) between screening and immediate pre-treatment tumor evaluation. Sixteen (16) dogs and eighteen (18) tumors were treated. Raw data for RECIST assessment was collected on Day 0 (immediately pre-treatment) and on Day 28 for fifteen (15) cases. […] With the remaining three (3) cases (C05-T-18, C05-V-01, and C05-V-02), the dogs were not available on Day 28 for RECIST assessment. For dog C05-T-18, the injection site was measured as CR on Days 21 and 37. […] For dog C05-V-01, the injection site was measured as PR on Days 21 and 37 (55% and 60% RECIST reduction respectively). […] For dog […], due to the progressive nature of disease, the animal was removed from study on Day 21.

For `C/C=C(\C)C(=O)O[C@@H]1[C@@H](C)[C@@]2(O)[C@H]([C@@H]3C(C)(C)[C@]13OC(=O)[C@@H](C)CC)[C@@H]1O[C@]1(CO)[C@@H](O)[C@]1(O)C(=O)C(C)=C[C@H]12` [Compound 1, 12-tigloyl-13-(2-methylbutanoyl)-6,7-epoxy-4,5,9,12,13,20-hexahydroxy-1-tigliaen-3-one], the “Number of AEs identified” value ([1]; 18 cases, 14 event types) was 72, the “Share of AEs of VCOG-CTCAE Grade 1” value ([1]; 59 out of 72) was 82% and the “Apathy: VCOG-CTCAE Grade classification (no. of animals)” value ([1]; Grade 1) was 1 (2). For the same compound, the “Bruising at treatment site: VCOG-CTCAE Grade classification (no. of animals)” value ([1]; Grade 1) was 1 (13), the “Inappetance: VCOG-CTCAE Grade classification (no. of animals)” value ([1]; Grade 1) was 1 (6) and the “Lethargy: VCOG-CTCAE Grade classification (no. of animals)” value ([1]; Grade 1) was 1 (5). For the same compound, the “Listless: VCOG-CTCAE Grade classification (no. of animals)” value ([1]; Grade 1) was 1 (2), the “Local swelling at treatment site: VCOG-CTCAE Grade classification (no. of animals)” value ([1]; Grade 1) was 1 (17) and the “Pain associated with treatment site: VCOG-CTCAE Grade classification (no. of animals)” value ([1]; Grade 1) was 1 (12). For the same compound, the “Polydipsia: VCOG-CTCAE Grade classification (no. of animals)” value ([1]; Grade 1) was 1 (1), the “Ringworm: VCOG-CTCAE Grade classification (no. of animals)” value ([1]; Grade 1) was 1 (1) and the “Transient Diarrhoea: VCOG-CTCAE Grade classification (no. of animals)” value ([1]; Grade 1) was 1 (1). The “Vomiting: VCOG-CTCAE Grade classification (no. of animals)” value ([1]; Grade 1) was 1 (2), the “Bruising at treatment site: VCOG-CTCAE Grade classification (no. of animals)” value ([1]; Grade 2) was 2 (1) and the “Cranial abdominal pain: VCOG-CTCAE Grade classification (no. of animals)” value ([1]; Grade 2) was 2 (1). For the same compound, the “Inappetance: VCOG-CTCAE Grade classification (no. of animals)” value ([1]; Grade 2) was 2 (1), the “Injection site lesion antimicrobial prophylaxis: VCOG-CTCAE Grade classification (no. of animals)” value ([1]; Grade 2) was 2 (1) and the “Lethargy: VCOG-CTCAE Grade classification (no. of animals)” value ([1]; Grade 2) was 2 (1). The “Local swelling at treatment site: VCOG-CTCAE Grade classification (no. of animals)” value ([1]; Grade 2) was 2 (1), the “Pain associated with treatment site: VCOG-CTCAE Grade classification (no. of animals)” value ([1]; Grade 2) was 2 (1) and the “Skin pustulation: VCOG-CTCAE Grade classification (no. of animals)” value ([1]; Grade 2) was 2 (1). For the same compound, the “Transient Diarrhoea: VCOG-CTCAE Grade classification (no. of animals)” value ([1]; Grade 2) was 2 (1), the “Vomiting: VCOG-CTCAE Grade classification (no. of animals)” value ([1]; Grade 2) was 2 (1) and the “Apathy: Incidence (%)” value ([1]; all dogs (18 cases)) was 11.1%. For the same compound, the “Apathy: No. of dogs experiencing this event” value ([1]; all dogs (18 cases)) was 2, the “Bruising at treatment site: Incidence (%)” value ([1]; all dogs (18 cases)) was 77.8% and the “Bruising at treatment site: No. of dogs experiencing this event” value ([1]; all dogs (18 cases)) was 14. The “Cranial abdominal pain: Incidence (%)” value ([1]; all dogs (18 cases)) was 5.6%, the “Cranial abdominal pain: No. of dogs experiencing this event” value ([1]; all dogs (18 cases)) was 1 and the “Inappetance: Incidence (%)” value ([1]; all dogs (18 cases)) was 38.9%. The “Inappetance: No. of dogs experiencing this event” value ([1]; all dogs (18 cases)) was 7, the “Injection site lesion antimicrobial prophylaxis: Incidence (%)” value ([1]; all dogs (18 cases)) was 5.6% and the “Injection site lesion antimicrobial prophylaxis: No. of dogs experiencing this event” value ([1]; all dogs (18 cases)) was 1. The “Lethargy: Incidence (%)” value ([1]; all dogs (18 cases)) was 33.3%, the “Lethargy: No. of dogs experiencing this event” value ([1]; all dogs (18 cases)) was 6 and the “Listless: Incidence (%)” value ([1]; all dogs (18 cases)) was 11.1%. For the same compound, the “Listless: No. of dogs experiencing this event” value ([1]; all dogs (18 cases)) was 2, the “Local swelling at treatment site: Incidence (%)” value ([1]; all dogs (18 cases)) was 100.0% and the “Local swelling at treatment site: No. of dogs experiencing this event” value ([1]; all dogs (18 cases)) was 18. For the same compound, the “Pain associated with treatment site: Incidence (%)” value ([1]; all dogs (18 cases)) was 72.2%, the “Pain associated with treatment site: No. of dogs experiencing this event” value ([1]; all dogs (18 cases)) was 13 and the “Polydipsia: Incidence (%)” value ([1]; all dogs (18 cases)) was 5.6%. For the same compound, the “Polydipsia: No. of dogs experiencing this event” value ([1]; all dogs (18 cases)) was 1, the “Ringworm: Incidence (%)” value ([1]; all dogs (18 cases)) was 5.6% and the “Ringworm: No. of dogs experiencing this event” value ([1]; all dogs (18 cases)) was 1. The “Skin pustulation: Incidence (%)” value ([1]; all dogs (18 cases)) was 5.6%, the “Skin pustulation: No. of dogs experiencing this event” value ([1]; all dogs (18 cases)) was 1 and the “Transient Diarrhoea: Incidence (%)” value ([1]; all dogs (18 cases)) was 11.1%. For the same compound, the “Transient Diarrhoea: No. of dogs experiencing this event” value ([1]; all dogs (18 cases)) was 2, the “Vomiting: Incidence (%)” value ([1]; all dogs (18 cases)) was 16.7% and the “Vomiting: No. of dogs experiencing this event” value ([1]; all dogs (18 cases)) was 3. The “Time by which reported AEs resolved post treatment” value ([1]; except limb swelling in dog C05-T-17) was 24 to 48 h, the “Number of AEs of ‘mild’ VCOG-CTCAE Grade 1 (no intervention required)” value ([1]; out of 72 AEs) was 59 and the “Cases requiring minimal medical intervention” value ([1]; with the exception of dogs C05-T-04 and C05-T-17) was 3. The “Share of cases with a CR RECIST result” value ([2]; 14 out of 18 cases) was 78%, the “Number of cases with progressive disease (PD)” value ([2]; Day 28, 15 cases assessed) was 1 and the “Number of cases with complete response (CR)” value ([2]; Day 28, 15 cases assessed, prednisolone, chlorpheniramine, famotidine co-therapy) was 13. The “Tumor course beyond Day 7 post treatment” value ([2]; dog C05-T-09, Patnaik Grade III cutaneous MCT) was “continued to grow”, the RECIST reduction ([2]; dog C05-V-01, Day 21) was 55% and the RECIST reduction ([2]; dog C05-V-01, Day 37) was 60%. The “RECIST reduction of residual mass” value ([2]; dog C05-V-01, Day 57) was 70%, the “RECIST result of injection site” value ([2]; dog C05-V-01, Days 21 and 37) was “PR (partial response (PR, at least 30% decrease in the longest diameter of target lesion))” and the “Residual tumor after initial tumor reduction” value ([2]; dog C05-V-02, vulvar Patnaik Grade III MCT) was “residual tumor mass was evident by Day 21”. For the same compound, the “Number of cases with partial response (PR)” value ([2]; of 18 cases enrolled) was 1, the “Number of cases with progressive disease” value ([2]; of 18 cases enrolled) was 2 and the “Number of cases with a CR RECIST result” value ([2]; out of eighteen (18) treated cases) was 14.
